Results taken from paper PMC8387461, “T cell receptor recognition of hybrid insulin peptides bound to HLA-DQ8” (Nature Communications, 2021).

Columns and labels:
[1] = test system: SKW-3 A1.9 TCR cells; experiment: CD69 upregulation, SKW-3 A1.9 TCR cells; type: cell-based, human; settings: CD69 MFI, flow cytometry; peptide-pulsed BLCL 9031, 20 h
Experimental: For TCR transduced SKW-3 T cell lines (SKW-3-TCR), response to antigen was determined using flow cytometry to assess the level of upregulation of the T cell activation marker CD69. One hundred thousand BLCL 9031 cells (HLA-DQ8 + : HLA-DQA*03:01:01, HLA-DQB1*03:02) as APCs were incubated at 37 °C, 5% CO2 for 24 h with increasing concentrations of synthesised HIP ([…]; GLBiochem) or native C-peptide ([…]; GLBiochem) or 50 μg DQ8-glia-α1 (control) in 96 well round-bottomed plates. […] Before data acquisition, the samples were resuspended in 100 μl of FACS buffer and analysed via flow cytometry (LSR II; BD Biosciences; BD FACSDiva-8.0.1 software). Collected data were analysed using Flowjo v10.6.0 (FlowJo), and then Prism 9 (GraphPad Software). […] Using these settings, the median fluorescence intensity (MFI) corresponding to the relative level of CD69 expressed on the SKW-3-TCR.TCR cell lines was determined using Flowjo v10.6.0 software. The MFI of CD69 were analysed by using Prism 9 (GraphPad Software). […] Statistical significance was determined using P-values generated by t-test or one-way ANOVA multiple comparison of the MFI of no-peptide-stimulated SKW-3-TCR T cells versa the MFI of peptide-stimulated SKW-3-TCR T cells. […]
expression. The fold increase in MFI CD69 expression was calculated by dividing the average MFI CD69 from each sample by the average MFI CD69 from BLCL 9031 (no […]

[2] = test system: CD4+ T cell clone A5.5; experiment: T cell stimulation assay, IFNγ ELISA, clone A5.5; type: cell-based, human; settings: primary clone A5.5, APC EBV-KJ, 24 h
Experimental: Fig. 2 Comparison of the stimulatory capacity of full-length proinsulin C-peptide and HIP on T1D CD4 + T cell clones. […] Titration of full-length 31-mer C-peptide ([…], (open circles) and 15mer C-peptide-IAPP2 HIP ([…] (filled circles). Antigen presenting cells (APC) were the EBV line, EBV-KJ, (2 × 10^4 cells/well). APC were cultured for 24 h with the same number (2 × 10^4 cells/well) of the primary CD4 + T-cell clone and the peptide concentration indicated. T-cell response to peptide were indicated by secretion of IFNγ which was measured in triplicate by ELISA and reported as pg/ml. Mean and standard deviations of triplicate IFNγ measurements are shown. Results are representative of two experiments for each clone.
For primary T1D CD4+ T cell clones, cells were thawed and used directly in functional assays. For T cell stimulation assays, cloned CD4+ T cells were incubated with BLCL KJ (; HLA-DQ8 + : HLA-DQA1*03:01, HLA-DQB1*03:02), as APCs, together with synthetic peptides. For the alanine scan experiments, each peptide was added to a final concentration of 10 μM. T cell response to antigen was measured as interferon gamma (IFNγ) secretion into the culture media. The IFNγ concentration in the culture media was determined by ELISA (Biolegend).
Supplementary Figure 8. […]
type) at each position P-3 to P12 are shown. IFNγ was measured in triplicate by ELISA, concentrations are shown in pg/ml. […]

**Q.** For GQVELGGGNAVEVLK [HIP], which “preference for HIP over C-peptide” value [1] is on record?
**A.** The value was 25 fold.

**Q.** What about the “sensitivity to HIP versus native proinsulin C-peptide” value [2] of the same sequence?
**A.** The value was “ten times more sensitive to the HIP peptide than native proinsulin C-peptide”.
